Experimental data reported in ChEMBL document CHEMBL1201862, “PubChem BioAssay data set” (2004).
Calls of active or inactive are those of the source.

Assays:
Assay type in all cases: functional
[1] = target: Multidrug resistance protein CDR2 (Candida albicans (strain SC5314 / ATCC MYA-2876) (Yeast), UniProt P78595); assay: CaCDR2 efflux pump inhibitors in yeast, dose response, S. cerevisiae AD1-8u, singleplex, Cherry Pick1 hits (AID 588604)
[2] = target: T1, Neuropeptides B/W receptor type 1 (Homo sapiens, UniProt P48145); assay: GPR7 antagonist potency, late-stage follow-up, cell-based, fluorescence, dose response, set 5 (AID 588566)
T1 sequence (P48145 whole entry): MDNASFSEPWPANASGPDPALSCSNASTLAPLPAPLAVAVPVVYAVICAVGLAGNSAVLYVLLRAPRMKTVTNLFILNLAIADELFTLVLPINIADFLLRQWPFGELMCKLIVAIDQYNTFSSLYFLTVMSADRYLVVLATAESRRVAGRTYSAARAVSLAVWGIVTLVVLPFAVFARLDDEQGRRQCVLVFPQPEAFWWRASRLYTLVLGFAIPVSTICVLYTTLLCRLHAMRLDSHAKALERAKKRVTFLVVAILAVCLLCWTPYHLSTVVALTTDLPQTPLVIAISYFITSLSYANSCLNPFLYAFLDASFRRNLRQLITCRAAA

[3] = target: Melanin-concentrating hormone receptor 1 (Homo sapiens, UniProt Q99705); assay: Late-stage fluorescence-based counterscreen for antagonists of the G-protein coupled receptor 7 (GPR7): cell-based dose response assay to identify antagonists of the melanin-concentrating hormone receptor 1 (MCHR1) Set 5.
[4] = target: Protein kinase C theta type (Homo sapiens, UniProt Q04759); assay: Navigating the Kinome. Panel member name: PRKCQ
[5] = target: Ribosomal protein S6 kinase alpha-3 (Homo sapiens, UniProt P51812);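 note: measured within a kinome-wide profiling panel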
[6] = target: Dual specificity protein kinase CLK2 (Homo sapiens, UniProt P49760)
[7] = target: Dual specificity mitogen-activated protein kinase kinase 1 (Homo sapiens, UniProt Q02750); assay: Navigating the Kinome. Panel member name: MAP2K1
[8] = target: Tyrosine-protein kinase JAK2 (Homo sapiens, UniProt O60674);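 note: JAK2 tested as one member of a kinase panel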
Sequence of Tyrosine-protein kinase JAK2 (O60674 whole entry): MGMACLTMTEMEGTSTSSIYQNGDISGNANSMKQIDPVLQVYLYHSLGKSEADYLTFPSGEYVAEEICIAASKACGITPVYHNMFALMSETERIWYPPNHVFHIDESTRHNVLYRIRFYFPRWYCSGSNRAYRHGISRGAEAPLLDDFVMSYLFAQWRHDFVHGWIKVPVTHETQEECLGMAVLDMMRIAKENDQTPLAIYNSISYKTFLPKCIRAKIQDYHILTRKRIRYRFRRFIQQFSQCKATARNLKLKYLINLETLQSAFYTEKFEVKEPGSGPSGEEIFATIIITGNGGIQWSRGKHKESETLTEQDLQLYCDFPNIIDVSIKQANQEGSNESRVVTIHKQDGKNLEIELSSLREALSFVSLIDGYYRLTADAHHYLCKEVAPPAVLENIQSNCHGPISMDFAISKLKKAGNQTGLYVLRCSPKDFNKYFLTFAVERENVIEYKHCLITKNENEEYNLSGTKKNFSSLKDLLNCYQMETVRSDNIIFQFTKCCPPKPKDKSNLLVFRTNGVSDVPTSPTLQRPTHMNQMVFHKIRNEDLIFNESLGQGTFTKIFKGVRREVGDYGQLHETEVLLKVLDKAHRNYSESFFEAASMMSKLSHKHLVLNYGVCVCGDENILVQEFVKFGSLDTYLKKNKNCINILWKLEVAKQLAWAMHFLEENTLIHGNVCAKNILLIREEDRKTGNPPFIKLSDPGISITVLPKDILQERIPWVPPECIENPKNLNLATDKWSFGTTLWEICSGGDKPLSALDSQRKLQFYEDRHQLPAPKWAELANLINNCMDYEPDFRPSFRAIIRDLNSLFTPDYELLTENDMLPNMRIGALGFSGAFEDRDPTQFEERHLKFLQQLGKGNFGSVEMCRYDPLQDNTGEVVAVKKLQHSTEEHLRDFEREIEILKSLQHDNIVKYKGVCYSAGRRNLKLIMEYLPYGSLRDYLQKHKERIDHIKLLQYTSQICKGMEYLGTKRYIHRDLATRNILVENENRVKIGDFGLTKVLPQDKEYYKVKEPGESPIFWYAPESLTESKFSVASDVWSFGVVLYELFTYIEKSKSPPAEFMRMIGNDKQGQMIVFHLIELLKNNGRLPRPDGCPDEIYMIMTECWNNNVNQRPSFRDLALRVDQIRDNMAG

[9] = target: Serine/threonine-protein kinase TBK1 (Homo sapiens, UniProt Q9UHD2); assay: Navigating the Kinome. Panel member name: TBK1
[10] = target: 5'-AMP-activated protein kinase catalytic subunit alpha-1 (Homo sapiens, UniProt Q13131)
[11] = target: ALK tyrosine kinase receptor (Homo sapiens, UniProt Q9UM73);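 note: ALK tested as one member of a kinase panel screen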
[12] = target: Proto-oncogene tyrosine-protein kinase receptor Ret (Homo sapiens, UniProt P07949);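 note: measured within a kinome-wide profiling panel, RET as the panel member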
[13] = target: Tyrosine-protein kinase receptor TYRO3 (Homo sapiens, UniProt Q06418);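 note: TYRO3 value obtained as one member of a kinome-wide profiling panel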
[14] = target: Serine/threonine-protein kinase D3 (Homo sapiens, UniProt O94806);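 note: determined within a kinase panel screen, with PRKCN as the panel member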
[15] = target: Death-associated protein kinase 3 (Homo sapiens, UniProt O43293);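 note: measured as one member of a kinome-wide profiling panel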
Activin receptor type-1 = Activin receptor type-1 (Homo sapiens, UniProt Q04771); assay: Navigating the Kinome. Panel member name: ACVR1
[16] = target: Mitogen-activated protein kinase 8 (Homo sapiens, UniProt P45983);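 note: value comes from one member of a kinome-wide kinase profiling panel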
[17] = target: Serine/threonine-protein kinase pim-1 (Homo sapiens, UniProt P11309)
Aurora kinase A = Aurora kinase A (Homo sapiens, UniProt O14965);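 note: value from the Navigating the Kinome kinase panel profiling, panel entry STK6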
Sequence of Aurora kinase A (O14965 whole entry): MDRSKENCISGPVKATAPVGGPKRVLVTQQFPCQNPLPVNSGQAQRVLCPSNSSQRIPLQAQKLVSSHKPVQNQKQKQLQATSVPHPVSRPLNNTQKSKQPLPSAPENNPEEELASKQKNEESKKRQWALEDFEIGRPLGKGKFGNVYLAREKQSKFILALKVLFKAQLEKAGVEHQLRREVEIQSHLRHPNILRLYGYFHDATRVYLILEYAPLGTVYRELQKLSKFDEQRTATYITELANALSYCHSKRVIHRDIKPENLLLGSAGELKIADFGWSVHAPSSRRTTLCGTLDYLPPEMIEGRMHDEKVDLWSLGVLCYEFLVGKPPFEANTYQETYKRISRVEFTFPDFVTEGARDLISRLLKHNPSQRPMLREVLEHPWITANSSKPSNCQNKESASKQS

[18] = target: Serine/threonine-protein kinase PAK 4 (Homo sapiens, UniProt O96013);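 note: value obtained within a kinome profiling panel in which PAK4 was one of the panel members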
[19] = target: Fibroblast growth factor receptor 1 (Homo sapiens, UniProt P11362)
[20] = target: Casein kinase I isoform alpha (Homo sapiens, UniProt P48729)
Sequence of Casein kinase I isoform alpha (P48729 whole entry, canonical isoform): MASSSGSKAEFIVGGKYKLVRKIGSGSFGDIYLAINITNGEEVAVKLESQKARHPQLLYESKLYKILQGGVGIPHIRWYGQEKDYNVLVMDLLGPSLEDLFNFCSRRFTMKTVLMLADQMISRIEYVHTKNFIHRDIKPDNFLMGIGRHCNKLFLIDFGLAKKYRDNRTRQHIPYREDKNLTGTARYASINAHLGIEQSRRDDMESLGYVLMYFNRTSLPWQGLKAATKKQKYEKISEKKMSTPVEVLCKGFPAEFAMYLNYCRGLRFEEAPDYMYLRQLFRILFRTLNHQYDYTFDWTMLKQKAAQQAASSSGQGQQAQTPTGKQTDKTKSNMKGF

[21] = target: Tyrosine-protein kinase JAK3 (Homo sapiens, UniProt P52333)
[22] = target: Mitogen-activated protein kinase 9 (Homo sapiens, UniProt P45984);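 note: value from a kinome panel profiling assay, MAPK9 panel entry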
LIM domain kinase 1 = LIM domain kinase 1 (Homo sapiens, UniProt P53667); assay: Navigating the Kinome. Panel member name: LIMK1
[23] = target: Serine/threonine-protein kinase TAO1 (Homo sapiens, UniProt Q7L7X3)
[24] = target: Glycogen synthase kinase-3 alpha (Homo sapiens, UniProt P49840);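 note: GSK3A result taken from a broad kinome-wide kinase panel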
Sequence of Glycogen synthase kinase-3 alpha (P49840 whole entry): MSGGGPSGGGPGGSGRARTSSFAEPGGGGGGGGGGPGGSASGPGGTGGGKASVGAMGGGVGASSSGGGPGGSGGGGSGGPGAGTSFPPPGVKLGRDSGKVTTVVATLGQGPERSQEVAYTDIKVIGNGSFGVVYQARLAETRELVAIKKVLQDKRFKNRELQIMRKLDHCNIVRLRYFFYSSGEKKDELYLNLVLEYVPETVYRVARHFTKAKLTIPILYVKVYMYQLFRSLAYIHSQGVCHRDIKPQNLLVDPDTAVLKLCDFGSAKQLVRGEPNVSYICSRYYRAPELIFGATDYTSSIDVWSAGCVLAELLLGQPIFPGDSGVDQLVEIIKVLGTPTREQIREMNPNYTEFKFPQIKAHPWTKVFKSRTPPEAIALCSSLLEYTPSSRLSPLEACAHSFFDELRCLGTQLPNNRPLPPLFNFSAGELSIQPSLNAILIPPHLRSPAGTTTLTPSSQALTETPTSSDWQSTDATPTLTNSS

[25] = target: Mitogen-activated protein kinase kinase kinase kinase 2 (Homo sapiens, UniProt Q12851);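 note: measured as one member of a kinome-wide kinase panel, with MAP4K2 as the panel entry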
[26] = target: Hepatocyte growth factor receptor (Homo sapiens, UniProt P08581);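 note: kinase panel profiling across the kinome, with MET as the panel member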
Activated CDC42 kinase 1 = Activated CDC42 kinase 1 (Homo sapiens, UniProt Q07912); assay: Navigating the Kinome. Panel member name: ACK1
[27] = target: Receptor-type tyrosine-protein kinase FLT3 (Homo sapiens, UniProt P36888);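 note: FLT3 was tested as one member of a kinome-wide kinase panel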
[28] = target: Serine/threonine-protein kinase Chk1 (Homo sapiens, UniProt O14757);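 note: measured as one member of a kinome-wide kinase profiling panel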
[29] = target: Tyrosine-protein kinase ABL1 (Homo sapiens, UniProt P00519)
[30] = target: Vascular endothelial growth factor receptor 2 (Homo sapiens, UniProt P35968)
[31] = target: G protein-coupled receptor kinase 5 (Homo sapiens, UniProt P34947); assay: Navigating the Kinome. Panel member name: GPRK5
[32] = target: Cyclin-dependent kinase 5 (Homo sapiens, UniProt Q00535);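 note: CDK5 measured as one member of a kinase profiling panel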
[33] = target: Insulin-like growth factor 1 receptor (Homo sapiens, UniProt P08069); assay: Navigating the Kinome. Panel member name: IGF1R
[34] = target: Dual specificity tyrosine-phosphorylation-regulated kinase 1B (Homo sapiens, UniProt Q9Y463); assay: Navigating the Kinome. Panel member name: DYRK1B
[35] = target: cAMP-dependent protein kinase catalytic subunit PRKX (Homo sapiens, UniProt P51817)
Sequence of cAMP-dependent protein kinase catalytic subunit PRKX (P51817 whole entry): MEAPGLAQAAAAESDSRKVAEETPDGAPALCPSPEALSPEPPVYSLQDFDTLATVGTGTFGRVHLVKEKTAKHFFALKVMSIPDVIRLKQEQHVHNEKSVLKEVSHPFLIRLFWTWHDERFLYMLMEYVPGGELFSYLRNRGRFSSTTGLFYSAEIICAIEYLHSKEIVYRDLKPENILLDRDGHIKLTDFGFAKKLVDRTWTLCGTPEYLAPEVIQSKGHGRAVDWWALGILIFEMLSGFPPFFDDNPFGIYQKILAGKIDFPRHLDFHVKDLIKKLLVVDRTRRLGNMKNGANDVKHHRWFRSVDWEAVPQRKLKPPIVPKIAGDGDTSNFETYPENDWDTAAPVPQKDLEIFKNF

[36] = target: Platelet-derived growth factor receptor alpha (Homo sapiens, UniProt P16234); assay: Navigating the Kinome. Panel member name: PDGFRA
[37] = target: Leucine-rich repeat serine/threonine-protein kinase 2 (Homo sapiens, UniProt Q5S007);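 note: value from a broad kinome-wide panel profiling study in which LRRK2 was one of the kinases tested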
Aurora kinase B = Aurora kinase B (Homo sapiens, UniProt Q96GD4)
[38] = target: Rho-associated protein kinase 1 (Homo sapiens, UniProt Q13464);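 note: measured within a broad kinome-wide panel profiling many kinases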
[39] = target: Tyrosine-protein kinase Fyn (Homo sapiens, UniProt P06241)
[40] = target: Serine/threonine-protein kinase Nek2 (Homo sapiens, UniProt P51955)
[41] = target: Cyclin-dependent kinase 8 (Homo sapiens, UniProt P49336); assay: Navigating the Kinome. Panel member name: CDK8
[42] = target: Cyclin-dependent kinase 7 (Homo sapiens, UniProt P50613);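 note: value comes from a kinome-wide kinase profiling panel in which CDK7 is one member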
[43] = target: Vascular endothelial growth factor receptor 1 (Homo sapiens, UniProt P17948);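 note: measured within a kinome-wide profiling panel, FLT1 as the panel member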
[44] = target: Glycogen synthase kinase-3 beta (Homo sapiens, UniProt P49841);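 note: value comes from a broad kinome profiling panel, with GSK3B as the panel member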
[45] = target: Cyclin-dependent kinase 9 (Homo sapiens, UniProt P50750);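 note: value from the CDK9 entry of a kinome-spanning kinase panel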
[46] = target: BDNF/NT-3 growth factors receptor (Homo sapiens, UniProt Q16620);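 note: NTRK2 measured as one member of a broad kinome-wide kinase profiling panel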
[47] = target: cAMP-dependent protein kinase catalytic subunit alpha (Homo sapiens, UniProt P17612)
[48] = target: Dual specificity protein kinase CLK4 (Homo sapiens, UniProt Q9HAZ1)
[49] = target: Mitogen-activated protein kinase kinase kinase kinase 4 (Homo sapiens, UniProt O95819)
[50] = target: Macrophage-stimulating protein receptor (Homo sapiens, UniProt Q04912); assay: Navigating the Kinome. Panel member name: MST1R
Sequence of Macrophage-stimulating protein receptor (Q04912 25-304 limits assumed): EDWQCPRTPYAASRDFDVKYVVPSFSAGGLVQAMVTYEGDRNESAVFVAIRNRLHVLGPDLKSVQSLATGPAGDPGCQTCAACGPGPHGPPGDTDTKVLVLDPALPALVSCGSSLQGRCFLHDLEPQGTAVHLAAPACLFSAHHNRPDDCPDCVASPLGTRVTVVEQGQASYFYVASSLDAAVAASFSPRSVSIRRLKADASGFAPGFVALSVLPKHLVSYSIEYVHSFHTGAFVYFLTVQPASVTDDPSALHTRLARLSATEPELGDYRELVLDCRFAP
Sequence of Macrophage-stimulating protein receptor (Q04912 310-1400 limits assumed): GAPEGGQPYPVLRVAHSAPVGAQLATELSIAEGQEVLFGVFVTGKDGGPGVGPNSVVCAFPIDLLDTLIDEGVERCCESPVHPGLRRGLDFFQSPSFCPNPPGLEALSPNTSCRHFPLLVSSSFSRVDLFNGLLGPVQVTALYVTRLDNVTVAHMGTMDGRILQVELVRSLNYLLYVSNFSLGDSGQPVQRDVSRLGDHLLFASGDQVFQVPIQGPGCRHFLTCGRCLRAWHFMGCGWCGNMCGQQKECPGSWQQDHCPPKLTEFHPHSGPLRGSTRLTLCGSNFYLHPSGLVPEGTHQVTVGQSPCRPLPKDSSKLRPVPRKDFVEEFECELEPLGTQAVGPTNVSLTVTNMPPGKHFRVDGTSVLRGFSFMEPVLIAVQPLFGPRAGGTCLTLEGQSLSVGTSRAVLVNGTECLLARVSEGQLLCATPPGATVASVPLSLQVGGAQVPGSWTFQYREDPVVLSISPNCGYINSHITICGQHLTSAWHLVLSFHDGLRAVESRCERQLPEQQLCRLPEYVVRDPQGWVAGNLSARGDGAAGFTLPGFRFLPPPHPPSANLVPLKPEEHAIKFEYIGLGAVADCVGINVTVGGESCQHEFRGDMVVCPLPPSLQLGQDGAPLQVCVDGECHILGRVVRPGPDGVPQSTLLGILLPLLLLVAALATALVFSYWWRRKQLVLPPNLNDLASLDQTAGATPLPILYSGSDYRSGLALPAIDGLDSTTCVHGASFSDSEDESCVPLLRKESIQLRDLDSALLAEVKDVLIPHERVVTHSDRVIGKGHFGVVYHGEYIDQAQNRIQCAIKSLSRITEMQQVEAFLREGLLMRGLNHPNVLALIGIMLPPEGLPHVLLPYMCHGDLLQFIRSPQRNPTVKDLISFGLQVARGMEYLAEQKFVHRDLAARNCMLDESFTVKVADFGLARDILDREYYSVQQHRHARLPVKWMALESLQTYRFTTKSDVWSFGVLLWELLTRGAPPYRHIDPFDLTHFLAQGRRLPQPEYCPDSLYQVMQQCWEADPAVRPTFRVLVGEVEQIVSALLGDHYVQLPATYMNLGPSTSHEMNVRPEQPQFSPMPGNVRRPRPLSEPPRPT

[51] = target: Macrophage colony-stimulating factor 1 receptor (Homo sapiens, UniProt P07333);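 note: value comes from the Navigating the Kinome screening panel, CSF1R member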
[52] = target: Dual specificity mitogen-activated protein kinase kinase 2 (Homo sapiens, UniProt P36507); assay: Navigating the Kinome. Panel member name: MAP2K2
[53] = target: Dual specificity tyrosine-phosphorylation-regulated kinase 1A (Homo sapiens, UniProt Q13627);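 note: measured against DYRK1A as one member of a broad kinome profiling panel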
[54] = target: Inhibitor of nuclear factor kappa-B kinase subunit epsilon (Homo sapiens, UniProt Q14164); assay: Navigating the Kinome. Panel member name: IKBKE
[55] = target: Calcium/calmodulin-dependent protein kinase type II subunit alpha (Homo sapiens, UniProt Q9UQM7); assay: Navigating the Kinome. Panel member name: CAMK2A
[56] = target: Leukocyte tyrosine kinase receptor (Homo sapiens, UniProt P29376); assay: Navigating the Kinome. Panel member name: LTK
Sequence of Leukocyte tyrosine kinase receptor (P29376 whole entry): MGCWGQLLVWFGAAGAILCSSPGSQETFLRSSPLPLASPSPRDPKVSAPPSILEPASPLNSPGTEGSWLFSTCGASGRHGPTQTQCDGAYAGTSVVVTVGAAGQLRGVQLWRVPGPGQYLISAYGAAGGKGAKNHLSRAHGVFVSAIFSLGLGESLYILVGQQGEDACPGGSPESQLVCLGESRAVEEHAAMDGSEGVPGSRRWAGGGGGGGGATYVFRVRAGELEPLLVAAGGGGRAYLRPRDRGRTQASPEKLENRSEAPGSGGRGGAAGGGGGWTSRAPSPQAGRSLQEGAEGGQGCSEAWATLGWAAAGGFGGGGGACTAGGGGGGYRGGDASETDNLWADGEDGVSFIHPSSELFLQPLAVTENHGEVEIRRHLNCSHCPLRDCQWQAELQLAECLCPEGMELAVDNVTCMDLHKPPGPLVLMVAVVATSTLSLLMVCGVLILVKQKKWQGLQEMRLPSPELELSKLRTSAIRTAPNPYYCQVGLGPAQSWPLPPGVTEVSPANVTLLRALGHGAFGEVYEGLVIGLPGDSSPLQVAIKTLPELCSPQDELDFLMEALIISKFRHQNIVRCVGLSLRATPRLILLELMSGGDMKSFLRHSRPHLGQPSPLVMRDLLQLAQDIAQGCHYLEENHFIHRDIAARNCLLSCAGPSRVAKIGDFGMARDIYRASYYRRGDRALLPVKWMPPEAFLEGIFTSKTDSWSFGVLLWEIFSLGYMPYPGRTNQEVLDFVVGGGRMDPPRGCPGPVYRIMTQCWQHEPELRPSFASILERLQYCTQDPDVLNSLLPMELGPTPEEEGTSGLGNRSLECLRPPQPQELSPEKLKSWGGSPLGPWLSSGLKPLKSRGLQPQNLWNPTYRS

[57] = target: Mitogen-activated protein kinase 14 (Homo sapiens, UniProt Q16539);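 note: part of a kinome-wide panel, MAPK14 entry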

SMILES: O=C(/C=C/c1ccccc1[N+](=O)[O-])NCCc1ccc(F)cc1
- EC50 [1]: 25.8 µM (active)

SMILES: COc1ccc([S+]([O-])c2c(Cl)cnn(Cc3cccc4ccccc34)c2=O)cc1 (configuration not stated)
- IC50 [2]: 6.18 µM (active)
- IC50 [3]: 5.86 µM (active)

SMILES: COc1ccccc1CNC(=N)Nc1nccc(-c2cccs2)n1
- Ki [4]: > 2.51 µM (inactive)
- Ki [5]: > 3.98 µM (inactive)
- Ki [6]: 3.16 µM (active)
- Ki [7]: > 3.16 µM (inactive)
- Ki [8]: > 2.51 µM (inactive)
- Ki [9]: > 3.16 µM (inactive)
- Ki [10]: > 3.16 µM (inactive)
- Ki [11]: > 6.31 µM (inactive)
- Ki [12]: > 3.16 µM (inactive)
- Ki [13]: > 3.16 µM (inactive)
- Ki [14]: > 3.98 µM (inactive)
- Ki [15]: > 5.01 µM (inactive)
- Ki (Activin receptor type-1): > 3.98 µM (inactive)
- Ki [16]: > 5.01 µM (inactive)
- Ki [17]: > 6.31 µM (inactive)
- Ki (Aurora kinase A): > 1.58 µM (inactive)
- Ki [18]: > 5.01 µM (inactive)
- Ki [19]: > 3.98 µM (inactive)
- Ki [20]: > 3.98 µM (inactive)
- Ki [21]: > 5.01 µM (inactive)
- Ki [22]: > 3.98 µM (inactive)
- Ki (LIM domain kinase 1): > 3.16 µM (inactive)
- Ki [23]: 5.01 µM (active)
- Ki [24]: 1.26 µM (active)
- Ki [25]: > 2.51 µM (inactive)
- Ki [26]: > 2.51 µM (inactive)
- Ki (Activated CDC42 kinase 1): > 3.98 µM (inactive)
- Ki [27]: > 3.16 µM (inactive)
- Ki [28]: > 3.16 µM (inactive)
- Ki [29]: > 2.51 µM (inactive)
- Ki [30]: > 2.51 µM (inactive)
- Ki [31]: > 3.98 µM (inactive)
- Ki [32]: 0.126 µM (active)
- Ki [33]: > 2.51 µM (inactive)
- Ki [34]: 0.398 µM (active)
- Ki [35]: > 3.16 µM (inactive)
- Ki [36]: > 2.51 µM (inactive)
- Ki [37]: > 2.51 µM (inactive)
- Ki (Aurora kinase B): > 3.98 µM (inactive)
- Ki [38]: > 3.98 µM (inactive)
- Ki [39]: > 6.31 µM (inactive)
- Ki [40]: > 3.16 µM (inactive)
- Ki [41]: > 3.98 µM (inactive)
- Ki [42]: > 3.98 µM (inactive)
- Ki [43]: > 3.98 µM (inactive)
- Ki [44]: 2.51 µM (active)
- Ki [45]: 0.1 µM (active)
- Ki [46]: > 3.98 µM (inactive)
- Ki [47]: > 1.26 µM (inactive)
- Ki [48]: 0.316 µM (active)
- Ki [49]: > 5.01 µM (inactive)
- Ki [50]: > 3.98 µM (inactive)
- Ki [51]: > 2.51 µM (inactive)
- Ki [52]: > 3.98 µM (inactive)
- Ki [53]: 1.58 µM (active)
- Ki [54]: > 3.16 µM (inactive)
- Ki [55]: > 3.98 µM (inactive)
- Ki [56]: > 2.51 µM (inactive)
- Ki [57]: > 3.98 µM (inactive)
